Measured values as given in patent US20250296955A1, “PIN1 TARGETING COMPOUNDS AND DEGRADERS AND METHODS THEREOF” (The Regents of the University of California, priority 2024, published 2025).
Like-named read-outs stand apart in the source and are kept apart here. *1 amine or outer side, *2 acyl side, *3 side chain or, on linkers, in order; H or OH if unused. Where a SMILES comes first, the peptide text is derived from it. [ ]: non-standard residue; d: D form. The star is where a group is joined. ξ: configuration not given here. Trp(5-OMe) = COc1ccc2[nH]cc(C[C@H](N)C(=O)O)c2c1; Trp(6-Cl) = N[C@@H](Cc1c[nH]c2cc(Cl)ccc12)C(=O)O; X1 = CC(OP(=O)(O)O)[C@@H](N[*:1])C(=O)[*:2]; 2Nal = N[C@@H](Cc1ccc2ccccc2c1)C(=O)O; Pip = O=C(O)[C@@H]1CCCCN1; ξPip = O=C(O)C1CCCCN1; ClAc = O=C(CCl)*

Columns and labels:
Pin1 [1] = target: T1, Pin1 (Homo sapiens, UniProt Q13526); details: Pinch B J, et al. (2020); read-out: IC50 value as reported by a fluorescence polarization assay; cited from earlier work
Pin1 [2] = target: T1, Pin1; experiment: DELFIA displacement assay (displacement of biotinylated D-peptide from 6His-Pin1); type: binding; design: human Pin1 (residues 1-163); made in house; host or cells: E. coli BL21 (DE3) gold pLysS
Excerpt: (§1) Important to the success of structure activity relations studies, robust biochemical, biophysical, and cell-based assays were implemented that enabled rapid and iterative evaluations of test Pin1 targeting agents. First, the DELFIA (Dissociation-enhanced lanthanide fluorescent immunoassay) assay platform was used to derive a robust heterogeneous assay to monitor the ability of test agents to displace the binding between Pin1 and the D-Peptide (Table 1), which was obtained in a biotinylated form (FIG. 10). […] Second, for an orthogonal biophysical assay denaturation thermal shift measurements were used. Pin1 was incubated with vehicle control (buffer with 1% DMSO), or test agents at protein: ligand ratio of 1:2 (20 μM protein-40 μM compound) for 10 min at 10° C. in the presence of the fluorescent dye SYPRO Orange. The samples were gradually exposed to increasing temperature (linear gradient from 10° C. to 95° C.), causing the protein to unfold. This unfolding allowed the fluorescent dye to bind to the protein's exposed hydrophobic residues, resulting in an increase in fluorescence. The thermal shift assay measures the protein's melting temperature (Tm), which is the temperature at which the protein denatures by 50%. Ligands can affect a protein target to thermal denaturation, which could manifest in a positive or negative shift in the protein denaturation temperature (ΔTm) (Bai N, Roder H, Dickson A, & Karanicolas J (2019) Scientific Reports 9; and Kranz J K & Schalk-Hihi C (2011) Fragment-Based Drug Design: Tools, Practical Approaches, and Examples 493:277-298). Using these two assays, a series of commercially available Pin1 inhibitors were profiled (Table 1). The non-covalent agent D-peptide resulted only moderately active, with an IC50 value of ˜3 μM that closely resembled the dissociation constant for this agent determined via isothermal titration calorimetry, and the ˜ 3 μM IC50 value as reported by a fluorescence polarization assay (Pinch B J, et al. (2020) Nat Chem Biol 16(9):979-987). […] (Table 1) was observed.
For the reported covalent agents such as sulfopin (Dubiella C, et al. (2021) Nat Chem Biol 17(9):954-963), BJP-07-017-3 (Pinch B J, et al. (2020) Nat Chem Biol 16(9):979-987), or KPT-6566 (Campaner E, et al. (2017) Nat Commun 8:15772), a 6-h pre-incubation period was included in the DELFIA assay to allow the covalent reaction to take place. For those agents, IC50 values that fell in the low nanomolar range were observed, consistent with what was reported previously for those compounds. […] To make those determinations in a broader panel of cancer cell lines three pancreatic cancer cell lines, BxPC3, MIA-PaCa-2, and PANC-1, the breast cancer cell line MDA-MB-231, the prostate cancer cell line PC3, and the non-small cell lung cancer cell line A549 were chosen. Each cell line represents various states of KRAS activating mutations (for example BxPC3 is wt-KRAS, while MIAPaCa2 carries the KRAS(G12C) mutation, and the PANC-1 the KRAS(G12D) (Miquel M, Zhang S, & Pilarsky C (2021) Front Cell Dev Biol 9:748631), A549 is KRAS(G12S) (Wang H, et al. (2019) EBioMedicine 49:106-117), MDA-MB-231 is KRAS(G13D) (Kim R K, et al. (2015) Exp Mol Med 47(1):e137), PC3 is wt-KRAS (Bouali S, et al. (2009) Oncol Rep 21(3):731-735). Pin1 protein levels in these cell lines were established using a specific Pin1 antibody in western blot analyses (FIG. 1A). The data confirmed that all these selected human cancer cell lines expressed a significant level of Pin1 (FIG. 1A).
Each well of 96-well streptavidin-coated plates (PerkinElmer) was incubated with 100 μL of 200 nM biotinylated D-peptide for 2 h and washed 3 times with a wash solution (PerkinElmer). Subsequently, a mixture containing Pin1, and a serial dilution of the test compounds were pre-incubated for 6 h. Eu-N1-labeled anti-6x-His antibody (PerkinElmer, 1:2000) was then added to this mixture and further incubated in the biotinylated D-peptide-bound plates for another 2 h. […]

Pin1 [3] = target: T1, Pin1; experiment: Denaturation thermal shift assay (SYPRO Orange); type: binding; design: human Pin1 (residues 1-163); made in house; host or cells: E. coli BL21 (DE3) gold pLysS; details: for ΔTm (° C.) 30 min: Table 1, Protein:compound 1:2, 20X Sypro Orange, 50 mM phosphate pH 7.5, 150 mM NaCl, 3% DMSO; for ΔTm: running text and figure legends
Excerpt: as §1
Thermal shift assays for Pin1 alone and in the presence of the inhibitors were obtained with a BioRad CFX Connect Real-Time PCR Detection System. Each data point was collected in quadruplicate. Each sample was prepared using buffer 50 mM Phosphate pH 7.5, 150 mM NaCl, 1% DMSO. Protein: ligand ratio used was 1:2 (20 μM protein-40 μM compound), and SYPRO Orange was used. Incubation of the Pin1 protein with the compounds was performed at 10° C. for 10 min. Samples were then heated from 10 to 95° C. with heating increments of 0.05° C., over 30 min. Fluorescence intensity was measured within the excitation/emission ranges 470-505/540-700 nm.

Pin1 [4] = target: T1, Pin1; experiment: Pin1 degradation in BxPC3 cells (western blot); type: cell-based; details: Bx-PC3 cell line, 25 μM, 24 h (FIG. 1B)
Excerpt: Next, each cell line was exposed to a relatively high concentration of each of the Pin1 inhibitors from Table 1 and measured their ability to cause Pin1 degradation in the Bx-PC3 cell line under the experimental conditions reported in FIG. 1B. […] It was hypothesized that this observed degradation in the series correlated with the increased sensitivity of Pin1 to thermal degradation induced by BJP-07-017-3 in vitro (Table 1).
(§2) BxPC3, MIA PaCa-2, PANC-1, MDA-MB-231, and PC3 were obtained from the American Type Culture Collection (ATCC) and A549 NucLight Red cells were purchased from Essen Bioscience. BxPC3 and PC3 cells were cultured in RPMI (Corning) while PANC-1 cells were cultured in DMEM (Corning). MIA PaCa-2 cells were also cultured in DMEM, but with the addition of 2.5% horse serum. A549 NucLight cells were cultured in a Ham's F-12 nutriend mixture with GlutaMAX-1 (Gibco). All of the culture media were supplemented with 10% FBS. […]
(§3) At the end of the treatments, cells were lysed with a lysis buffer containing 20 mM Tris, pH 7.4, 120 mM NaCl, 1% Triton X-100, 0.5% sodium deoxycholate, 0.1% SDS, 1% IGEPAL, 5 mM EDTA, protease inhibitor cocktail and PhosSTOP (Sigma-Aldrich). […] Protein concentrations were determined using the Pierce BCA Protein Assay Kit (ThermoFisher Scientific) according to the manufacturer's instruction. […]

Pin1 [5] = target: T1, Pin1; experiment: Pin1 degradation in MIA PaCa-2 cells (western blot); type: cell-based; details: after 24 h (FIG. 14C)
Experimental: BxPC3, MIA PaCa-2, PANC-1, MDA-MB-231, and PC3 were obtained from the American Type Culture Collection (ATCC) and A549 NucLight Red cells were purchased from Essen Bioscience. BxPC3 and PC3 cells were cultured in RPMI (Corning) while PANC-1 cells were cultured in DMEM (Corning). MIA PaCa-2 cells were also cultured in DMEM, but with the addition of 2.5% horse serum. A549 NucLight cells were cultured in a Ham's F-12 nutriend mixture with GlutaMAX-1 (Gibco). All of the culture media were supplemented with 10% FBS. MDA-MB-231 cells were nuclear-labeled red (MDA-MB-231 NucLight Red) with the IncuCyte NucLight lentivirus reagent (Essen Bioscience) according to the manufacturer's protocol and were cultured in DMEM supplemented with 10% FBS and 1 μg/mL puromycin. Cells were all maintained at 37° C. in a humidified incubator with 5% CO2.
At the end of the treatments, cells were lysed with a lysis buffer containing 20 mM Tris, pH 7.4, 120 mM NaCl, 1% Triton X-100, 0.5% sodium deoxycholate, 0.1% SDS, 1% IGEPAL, 5 mM EDTA, protease inhibitor cocktail and PhosSTOP (Sigma-Aldrich). Lysates were then centrifuged at 16,000×g for 20 min at 4° C. and supernatants were collected. Protein concentrations were determined using the Pierce BCA Protein Assay Kit (ThermoFisher Scientific) according to the manufacturer's instruction. […]

Pin1 [6] = target: T1, Pin1; experiment: Pin1 degradation in a panel of human cancer cell lines (western blot); type: cell-based; details: all cell lines, exposed to 5 μM, 24 h (FIG. 4); read-out: Dmax (the maximal level of degradation)
Experimental: In these studies, it was evident that both agents were very effective in degrading Pin1 in all tested human cancer cell lines with DC50 values (the concentration at which 50% degradation was observed)˜500 nM and Dmax (the maximal level of degradation) close to 100% with all cell lines when exposed to 5 μM of either agent (FIG. 4).
as §2, §3

[7] = Table 1, 6-h pre-incubation followed by 2-h incubation, ± SD from duplicates

T1 sequence (Q13526 whole entry, the tested form may be a part): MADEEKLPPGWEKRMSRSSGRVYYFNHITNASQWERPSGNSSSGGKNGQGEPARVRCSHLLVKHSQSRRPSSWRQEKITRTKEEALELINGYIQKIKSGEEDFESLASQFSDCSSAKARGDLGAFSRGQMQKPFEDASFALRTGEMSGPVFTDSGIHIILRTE

SMILES: CC(=O)N[C@@H](Cc1ccccc1)C(=O)N[C@@H](C(=O)N1CCCCC1C(=O)N[C@@H](Cc1ccc2ccccc2c1)C(=O)N[C@@H](CCC(N)=O)C(N)=O)C(C)OP(=O)(O)O (stereo partly shown) [158A1, reference compound] (Ac-F[X1][ξPip][2Nal]Q-NH2)
- IC50 (Pin1 [1]): ~3000 nM
- IC50 (Pin1 [2]): ~3000 nM
- IC50 (Pin1 [2]; [7]): 2910 ± 103 nM
- ΔTm (° C.) 30 min (Pin1 [3]; ± SE of four replicates): 3.40 ± 0.16 °C
- ΔTm (Pin1 [3]): 3.4 °C

SMILES: CN(C(=O)CCl)[C@@H](Cc1ccccc1)C(=O)N1CCCC[C@H]1C(=O)N[C@@H](CC1CNc2ccccc21)C(=O)N[C@@H](CCCNC(N)=O)C(N)=O (stereo partly shown) [158A12, reference compound]
- Pin1 degradation in cell (Pin1 [4]): significant Pin1 degradation
- IC50 (Pin1 [2]; [7]): 9 ± 1 nM
- ΔTm (° C.) 30 min (Pin1 [3]; ± SE of four replicates): −6.40 ± 0.04 °C
- ΔTm (Pin1 [3]): −6.4 °C

SMILES: COc1ccc2[nH]cc(C[C@H](NC(=O)[C@@H]3CCCCN3C(=O)[C@H](Cc3ccccc3)NC(=O)CCl)C(N)=O)c2c1 [158F10] (ClAc-Phe-[Pip]-[Trp(5-OMe)]-NH2)
- degradation of Pin1 (western blot) (Pin1 [5]): degradation of Pin1
- IC50 (Pin1 [2]; Table 3, ± SD from duplicates): 126 ± 5 nM
- ΔTm (° C.) (Pin1 [3]; Table 3, single transition, ± SE of four replicates): −10.16 ± 0.07 °C

SMILES: NC(=O)[C@H](Cc1c[nH]c2ccccc12)NC(=O)[C@@H]1CCCCN1C(=O)[C@H](Cc1c[nH]c2cc(Cl)ccc12)NC(=O)CCl [158H9] (ClAc-[Trp(6-Cl)]-[Pip]-Trp-NH2)
- Dmax (Pin1 [6]): ~100%
- ΔTm (Pin1 [3]): −8.41 °C

SMILES: NC(=O)[C@H](Cc1c[nH]c2ccccc12)NC(=O)[C@@H]1C[C@H]2CCCC[C@@H]2N1C(=O)[C@H](Cc1c[nH]c2ccccc12)NC(=O)CCl [164A1]
- IC50 (Pin1 [2]; Table 5): 1830 ± 394 nM
- share of first denaturation transition (Pin1 [3]; Table 4, percentage in brackets after first ΔTm): 80%
- share of second denaturation transition (Pin1 [3]; Table 4, percentage in brackets after second ΔTm): 20%
- ΔTm (° C.), first of two denaturation transitions (Pin1 [3]; Table 4, two transitions observed, likely incomplete complex formation): −0.38 ± 0.15 °C

SMILES: O=C(CCl)N[C@@H](Cc1cccc(O)c1)C(=O)N1CCCC[C@H]1C(=O)NCCc1c[nH]c2cc(Cl)cc(Cl)c12 [164A2]
- IC50 (Pin1 [2]; Table 3, ± SD from duplicates): 289 ± 23 nM
- share of first thermal shift peak (Pin1 [3]; Table 3, percentage in brackets after first ΔTm): 10%
- share of second thermal shift peak (Pin1 [3]; Table 3, percentage in brackets after second ΔTm): 90%
- ΔTm (° C.), first of two peaks (Pin1 [3]; Table 3, two peaks observed, likely incomplete complex formation): −0.25 ± 0.31 °C
